In US20260078120A1, “SUBSTITUTED PYRIDOPYRIMIDINONES” (MIRATI THERAPEUTICS, INC., priority 2022, published 2026):
Like-named read-outs stand apart in the source and are kept apart here.

Columns and labels:
Type in all cases: cell-based
[1] = test system: SKBR3 (PI3Kα wild type) cells; test: CellTiter-Glo 2.0 luminescent cell viability assay, 72 hours, SKBR3 cells
Procedure, shortened: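 Viability measured via CTG luminescence following roughly 72 hours of compound exposure at 37° C. Dosing used a 10 um starting concentration diluted 1:4 over 10 points; percent-of-vehicle data fitted with a variable-slope four-parameter model for IC50.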

[2] = test system: T47D (PI3Kα H1047R mutant) cells; test: CellTiter-Glo 2.0 luminescent cell viability assay, 72 hours, T47D cells
Procedure, shortened: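 Viability was measured by CellTiter-Glo 2.0 luminescence after approximately 72 h of compound exposure at 37° C. Plating was 1000 cells per well the day before dosing, with ten 1:4 dilutions from a 10 µM top concentration. Values as percent of vehicle were fitted by variable-slope log(inhibitor) regression to give IC50.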

[3] = test system: T47D (PI3Kα H1047R mutant) cells; test: Inhibition of pAKT formation, alphaLISA SureFire Ultra AKT 1/2/3 (pS473), T47D cells; settings: Homo sapiens, T47D
Procedure, shortened: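 AKT Ser473 phosphorylation was quantified by alphaLISA SureFire Ultra after roughly 1 h or 24 h compound exposure at 37 °C. Cells were T47D (12,000/well in HBSS), treated with a 10-point 1:4 series starting at 10.4 μM. Percent of control used alpelisib background and DMSO reference, and IC50 came from four-parameter logistic fitting.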

[4] = Homo sapiens, SK-BR-3, 72 h, SKBR3 (PI3Kα wild type) cells, CellTiter-Glo, approximately 72 hours, read-out: SKBR3 (WT) Viability IC50
[5] = Homo sapiens, T47D, 72 h, T47D (PI3Kα H1047R mutant) cells, CellTiter-Glo, approximately 72 hours, read-out: T47D (H1047R mutant) Viability IC50
[6] = T47D (PI3Kα H1047R mutant) cells, inhibition of pAKT (pS473) formation, approximately one hour or 24 hours treatment, read-out: T47D pAKT (H1047R mutant) IC50

IC50 [1, 4]	IC50 [2, 5]	IC50 [3, 6]	IC50 ([1]; SKBR3 (PI3Kα wild type) cells, CellTiter-Glo, approximately 72 hours, read-out: SKBR3 (WT) Viability IC50)	IC50 ([2]; T47D (PI3Kα H1047R mutant) cells, CellTiter-Glo, approximately 72 hours, read-out: T47D (H1047R mutant) Viability IC50)	SMILES	IC50 ([1]; Homo sapiens, SK-BR-3, 72 h, read-out: SKBR3 (WT) Viability IC50 (nM))	IC50 ([2]; Homo sapiens, T47D, 72 h, read-out: T47D (H1047R mutant) Viability IC50 (nM))	IC50 ([3]; read-out: T47D pAKT (H1047R mutant) IC50 (nM))
8790 nM	33.1 nM	2.34 nM			Cc1cc([C@@H](C)Nc2ccc(Cl)nc2C(=O)O)c2nc(N3Cc4ccccc4C3)c(C#N)c(=O)n2c1 [Example 10-14, (R)-6-chloro-3-((1-(3-cyano-2-(isoindolin-2-yl)-7-methyl-4-oxo-4H-pyrido[1,2-a]pyrimidin-9-yl)ethyl)amino)picolinic acid]			
> 10000 nM	57.9 nM	1.97 nM			Cc1cc([C@@H](C)Nc2ccccc2C(=O)O)c2nc(N3CCN(c4cccnc4)CC3)c(C)c(=O)n2c1 [Example 10-38, (R)-2-((1-(3,7-dimethyl-4-oxo-2-(4-(pyridin-3-yl)piperazin-1-yl)-4H-pyrido[1,2-a]pyrimidin-9-yl)ethyl)amino)benzoic acid]			
> 10000 nM	107 nM	3.13 nM			Cc1cc([C@@H](C)Nc2ccccc2C(=O)O)c2nc(N3CCN(CC(F)(F)F)CC3)c(C)c(=O)n2c1 [Example 10-125, (R)-2-((1-(3,7-dimethyl-4-oxo-2-(4-(2,2,2-trifluoroethyl)piperazin-1-yl)-4H-pyrido[1,2-a]pyrimidin-9-yl)ethyl)amino)benzoic acid]			
> 10000 nM	48.6 nM	5.49 nM			Cc1cc([C@@H](C)Nc2ccccc2C(=O)O)c2nc(N3CCN(c4ccc(C#N)cc4)[C@H](C)C3)c(C)c(=O)n2c1 [Example 10-24, 2-(((R)-1-(2-((R)-4-(4-cyanophenyl)-3-methylpiperazin-1-yl)-3,7-dimethyl-4-oxo-4H-pyrido[1,2-a]pyrimidin-9-yl)ethyl)amino)benzoic acid]			
9890 nM	38.5 nM	2.27 nM			Cc1cc([C@@H](C)Nc2ccccc2C(=O)O)c2nc(N3CCN(c4ccc(C#N)cc4)CC3)c(C)c(=O)n2c1 [Example 10-1, (R)-2-((1-(2-(4-(4-cyanophenyl)piperazin-1-yl)-3.7-dimethyl-4-oxo-4H-pyrido[1,2-a]pyrimidin-9-yl)ethyl)amino)benzoic acid]			
> 10000 nM	66.3 nM	2.96 nM			Cc1cc([C@@H](C)Nc2ccccc2C(=O)O)c2nc(N3CCN(c4cc(C)no4)CC3)c(C)c(=O)n2c1 [Example 10-48, (R)-2-((1-(3,7-dimethyl-2-(4-(3-methylisoxazol-5-yl)piperazin-1-yl)-4-oxo-4H-pyrido[1,2-a]pyrimidin-9-yl)ethyl)amino)benzoic acid]			
> 10000 nM	98.5 nM	2.58 nM			Cc1cc([C@@H](C)Nc2ccccc2C(=O)O)c2nc(N3CCC(F)(F)CC3)c(Cl)c(=O)n2c1 [Example 10-114, (R)-2-((1-(3-chloro-2-(4,4-difluoropiperidin-1-yl)-7-methyl-4-oxo-4H-pyrido[1,2-a]pyrimidin-9-yl)ethyl)amino)benzoic acid]			
> 10000 nM	77.5 nM	0.299 nM			Cc1cc([C@@H](C)Nc2ccccc2C(=O)O)c2nc(N3CCCCC3)c(F)c(=O)n2c1 [Example 10-79, (R)-2-((1-(3-fluoro-7-methyl-4-oxo-2-(piperidin-1-yl)-4H-pyrido[1,2-a]pyrimidin-9-yl)ethyl)amino)benzoic acid]			
> 10000 nM	82.4 nM	0.596 nM			Cc1cc([C@@H](C)Nc2ccccc2C(=O)O)c2nc(NC3CCC3)c(C#N)c(=O)n2c1 [Example 10-90, (R)-2-((1-(3-cyano-2-(cyclobutylamino)-7-methyl-4-oxo-4H-pyrido[1,2-a]pyrimidin-9-yl)ethyl)amino)benzoic acid]			
> 10000 nM	79.5 nM	2 nM			Cc1cc([C@@H](C)Nc2ccc(Cl)nc2C(=O)O)c2nc(NCC3CC3)c(C)c(=O)n2c1 [Example 10-85, (R)-6-chloro-3-((1-(2-((cyclopropylmethyl)amino)-3,7-dimethyl-4-oxo-4H-pyrido[1,2-a]pyrimidin-9-yl)ethyl)amino)picolinic acid]			
> 10000 nM	86.8 nM	5.78 nM			Cc1cc([C@@H](C)Nc2ccccc2C(=O)O)c2nc(N3CCN(c4ccc(C#N)cc4C)CC3)c(C#N)c(=O)n2c1 [Example 10-101, (R)-2-((1-(3-cyano-2-(4-(4-cyano-2-methylphenyl)piperazin-1-yl)-7-methyl-4-oxo-4H-pyrido[1,2-a]pyrimidin-9-yl)ethyl)amino)benzoic acid]			
> 10000 nM	85.8 nM	2.12 nM			Cc1cc([C@@H](C)Nc2ccccc2C(=O)O)c2nc(N3CCN(c4ccccc4)CC3)c(C#N)c(=O)n2c1 [Example 10-98, (R)-2-((1-(3-cyano-7-methyl-4-oxo-2-(4-phenylpiperazin-1-yl)-4H-pyrido[1,2-a]pyrimidin-9-yl)ethyl)amino)benzoic acid]			
> 10000 nM	98.8 nM	58.4 nM			Cc1cc([C@@H](C)Nc2ccc(C)nc2C(=O)O)c2nc(NC3CCC3)c(C#N)c(=O)n2c1 [Example 10-115, (R)-3-((1-(3-cyano-2-(cyclobutylamino)-7-methyl-4-oxo-4H-pyrido[1,2-a]pyrimidin-9-yl)ethyl)amino)-6-methylpicolinic acid]			
> 10000 nM	74.4 nM	1.19 nM			Cc1cc([C@@H](C)Nc2ccccc2C(=O)O)c2nc(N3CCC(F)(F)[C@@H](C)C3)c(C)c(=O)n2c1 [Example 10-127, 2-(((R)-1-(2-((S)-4,4-difluoro-3-methylpiperidin-1-yl)-3,7-dimethyl-4-oxo-4H-pyrido[1,2-a]pyrimidin-9-yl)ethyl)amino)benzoic acid]			
		1.6 nM	7450 nM	42.7 nM	Cc1cc([C@@H](C)Nc2ccccc2C(=O)O)c2nc(N3CCN(c4ccc(C#N)cc4)CC3C)c(C)c(=O)n2c1 (stereo partly drawn) [Example 10-20, 2-(((1R)-1-(2-(4-(4-cyanophenyl)-2-methylpiperazin-1-yl)-3,7-dimethyl-4-oxo-4H-pyrido[1,2-a]pyrimidin-9-yl)ethyl)amino)benzoic acid]			
> 10000 nM	163 nM	4.1 nM			Cc1cc([C@@H](C)Nc2ccccc2C(=O)O)c2nc(N3CC4CC3C(F)(F)C4)c(C)c(=O)n2c1 (stereo partly drawn) [Example 10-141, 2-(((1R)-1-(2-(6,6-difluoro-2-azabicyclo[2.2.1]heptan-2-yl)-3,7-dimethyl-4-oxo-4H-pyrido[1,2-a]pyrimidin-9-yl)ethyl)amino)benzoic acid]			
					Cc1cc([C@@H](C)Nc2ccccc2C(=O)O)c2nc(N3CCN(c4ccc(C#N)c5cnccc45)CC3)c(C)c(=O)n2c1 [Example 10-19, (R)-2-((1-(2-(4-(8-cyanoisoquinolin-5-yl)piperazin-1-yl)-3,7-dimethyl-4-oxo-4H-pyrido[1,2-a]pyrimidin-9-yl)ethyl)amino)benzoic acid]	7640 nM	41.4 nM	0.244 nM
> 10000 nM	57 nM	3.8 nM			Cc1cc([C@@H](C)Nc2ccccc2C(=O)O)c2nc(N3CCN(c4ccc(F)cc4)CC3)c(C)c(=O)n2c1 [Example 10-36, (R)-2-((1-(2-(4-(4-fluorophenyl)piperazin-1-yl)-3,7-dimethyl-4-oxo-4H-pyrido[1,2-a]pyrimidin-9-yl)ethyl)amino)benzoic acid]			
> 10000 nM	82.8 nM	1.71 nM			Cc1cc([C@@H](C)Nc2ccccc2C(=O)O)c2nc(N3Cc4ccc(F)cc4C3)c(C#N)c(=O)n2c1 [Example 10-92, (R)-2-((1-(3-cyano-2-(5-fluoroisoindolin-2-yl)-7-methyl-4-oxo-4H-pyrido[1,2-a]pyrimidin-9-yl)ethyl)amino)benzoic acid]			
> 10000 nM	98.8 nM	2.62 nM			Cc1cc([C@@H](C)Nc2ccccc2C(=O)O)c2nc(NCC3(C)CC3(F)F)c(C#N)c(=O)n2c1 (stereo partly drawn) [Example 10-60, 2-(((1R)-1-(3-cyano-2-(((2,2-difluoro-1-methylcyclopropyl)methyl)amino)-7-methyl-4-oxo-4H-pyrido[1,2-a]pyrimidin-9-yl)ethyl)amino)benzoic acid]			

SMILES	IC50 [1, 4]	IC50 [2, 5]	IC50 [3, 6]	IC50 ([1]; SKBR3 (PI3Kα wild type) cells, CellTiter-Glo, approximately 72 hours, read-out: SKBR3 (WT) Viability IC50)	IC50 ([2]; T47D (PI3Kα H1047R mutant) cells, CellTiter-Glo, approximately 72 hours, read-out: T47D (H1047R mutant) Viability IC50)	IC50 ([1]; Homo sapiens, SK-BR-3, 72 h, read-out: SKBR3 (WT) Viability IC50 (nM))	IC50 ([2]; Homo sapiens, T47D, 72 h, read-out: T47D (H1047R mutant) Viability IC50 (nM))	IC50 ([3]; read-out: T47D pAKT (H1047R mutant) IC50 (nM))
Cc1cc([C@@H](C)Nc2ccccc2C(=O)O)c2nc(N3C4CCCC3CC4)c(C#N)c(=O)n2c1 [Example 10-89, 2-(((1R)-1-(2-(8-azabicyclo[3.2.1]octan-8-yl)-3-cyano-7-methyl-4-oxo-4H-pyrido[1,2-a]pyrimidin-9-yl)ethyl)amino)benzoic acid]	> 10000 nM	81.7 nM	8.14 nM					
Cc1cc([C@@H](C)Nc2ccccc2C(=O)O)c2nc(N3CC4CC(C3)C4(F)F)c(C)c(=O)n2c1 [Example 10-102, 2-(((1R)-1-(2-(6,6-difluoro-3-azabicyclo[3.1.1]heptan-3-yl)-3,7-dimethyl-4-oxo-4H-pyrido[1,2-a]pyrimidin-9-yl)ethyl)amino)benzoic acid]	> 10000 nM	87 nM	3.71 nM					
